# Assay results reported in patent US20140235630A1, “COMPOSITIONS AND METHODS FOR THE TREATMENT OF PROLIFERATIVE DISEASES” (Beth Israel Deaconess Medical Center, Inc., priority 2011, published 2014).
# Legend:
# [1] = test system: tumor tissue of MMTV-CreBRCA1^f/fp53+/− mice; experiment: Immunohistochemistry / immunoblot of tumor tissue for γH2AX, Ki67, p-ERK; parameters: species or system mouse; conditions: in vivo treated tumors
# Description: FIG. 4B are immunohistochemical images of pre-treatment biopsies and post-Compound A treatment tumor tissues with antibodies against p-ERK, Ki67, and γH2AX showing an in vivo increase of γH2AX-positive cells after treatment with Compound A and proliferative activity at the “pushing margin.” Tumor-bearing mice were subjected to a pre-treatment biopsy and then treated with Compound A at 50 mg/kg/day. FIG. 6E are immunoblots with antibodies against actin, p-AKT, and γH2AX of tumor tissues harvested from animals 3 hours after last treatment with Compound A (30 mg/kg/day), Compound B (50 mg/kg/day), or their combination. FIG. 8A are immunohistochemical images of tumor tissues obtained from tumor-bearing […] pre-treatment (left column of images), at Day 10 of treatment (middle column of images), and post-treatment tissue at the time of progression (right column of images) following treatment with a combination of Compound A and Compound B. FIG. 8B is a graph of Ki67 (right bar graph in each treatment group) and γH2AX (left bar graph in each treatment group) levels in tumor biopsies in pre-treatment, on-treatment, and post-treatment at the time of progression groups. Ki67 and γH2AX were scored by counting and averaging the number of positive nuclei per high-power field (HPF). […] The protein concentration was determined using Bradford reagent (Biorad). […]
# [2] = test system: HCC1937 cells; experiment: DNA damage response immunoblots with or without ionizing radiation (10 Gy); type: cell-based, human
# Description: FIG. 5A are immunoblots showing the effects of Compound A, ATM inhibitor KU-55933, and their combination on the DNA damage response. HCC1937 were treated for 18 hours with Compound A at 2.5 μM, KU55933 at 10 μM, or their combination, subjected to ionizing irradiation with 10 Gy or mock, lysed 6 hours later, and subjected to immunoblotting. […] Immunoblots were performed using the Nupage System (Invitrogen). The protein concentration was determined using Bradford reagent (Biorad). A total of 20 μg of protein were loaded, except for PAR, Phospho ATM and Phospho DNA-PK/PRKDC western blots, where 40 μg were loaded. Tumor tissue lysates were prepared similarly with the exception of tissue homogenization by using an electric homogenizer for 30 secs after addition of the lysis buffer. Primary antibodies used for western blotting were total AKT (9272), Cleaved […] 3 (9661), total ERK (4695), Phospho AKT Ser473 (4058), Phospho ERK Thr202/Tyr204 (9106), Phospho-Histone H2AX Ser139 (2577), PTEN (9559) from Cell Signaling. Phospho ATM […] (2152-1), Phospho DNA-PK/PRKDC […] (3892-1) from Epitomics, Inc. CD31 (ab28364), Actin (ab6276), INPP4B (ab81269) from Abcam; pADPr (sc56198) from Santacruz Biotechnology; and Ki-67 (RM-9106) was purchased from Thermo Scientific.
# [3] = test system: breast cancer cells isolated from tumors of MMTV-CreBRCA1^f/fp53+/− mice; experiment: Rad51 foci immunofluorescence after ionizing radiation; type: cell-based, mouse; conditions: pre-treatment, 10 Gy, 6 hours post-irradiation
# Description: FIGS. 5B-5E are immunofluorescence images of breast cancer cells isolated from primary tumors from MMTV-CreBRCA1^f/fp53+/− mice either treated with vehicle control (5B and 5C) or Compound A (5D and 5E) for 18 hours, followed by irradiation with 10 Gy IR 6 hours later cells, using antibodies against Rad51 and counterstained with DAPI. Rad51 foci are depicted as lighter punctuate signals within the cells (5C).
# Cells were plated on coverslips in a 6-well plates and incubated overnight at 37° C. with 5% CO2 before drug treatment. Cells were exposed to 5-(2,6-dimorpholinopyrimidin-4-yl)-4-(trifluoromethyl)pyridin-2-amine (Compound A) for […] followed by irradiation (10 Gy). Cells were fixed with 3% paraformaldehyde and 2% sucrose diluted in PBS 6 h post-irradiation and subsequently permeabilized with 0.5% TritonX-100 buffer (20 mM HEPES pH7.4, 50 mM NaCl, 3 mM MgCl, 300 mM sucrose) for 3 minutes on ice. Cells were incubated with a primary rabbit anti human Rad-51 antiserum at 1:500 dilution in hybridization buffer (5% goat serum, 0.5% NaN3, 1×PBS) for 30 min at 37° C. and subsequently washed thrice in PBS before incubation with secondary antibody for 30 minutes at 37° C. Secondary antibody used was a donkey anti-rabbit Alexafluor 488 conjugated (Invitrogen) at a concentration of 1:50. […]
structure (smiles),measurement,setting,value
"Nc1cc(C(F)(F)F)c(-c2cc(N3CCOCC3)nc(N3CCOCC3)n2)cn1 [Compound A, 5-(2,6-dimorpholinopyrimidin-4-yl)-4-(trifluoromethyl)pyridin-2-amine]",percentage of tumor cells that express γH2AX / γH2AX in tumor lysates,[1],substantial increase
same,H2AX phosphorylation in response to ionizing radiation,"[2]; 18 hours pre-treatment, 10 Gy, lysed 6 hours later",prominent augmentation
same,auto-phosphorylation of DNA-PK,"[2]; Compound A 2.5 μM, 18 hours",strong increase
same,PAR accumulation,"[2]; Compound A 2.5 μM, KU55933 10 μM",increased
same,Rad51 accumulation in response to ionizing radiation,"[2]; pre-treatment, 10 Gy",failure to increase Rad51
same,formation of Rad51 foci in response to ionizing radiation,[3],completely blocked
